Measurements: patent publication EP4474016A1, “STRATEGIES TO TARGET EXTRACELLULARLY ACCESSIBLE RAS PROTEIN” (Julius-Maximilians-Universität Würzburg, priority 2023, dated 2024)

Legend:
[1] = system: human Multiple Myeloma cell lines MM.1S; assay: in vitro killing assay of anti-Ras bispecific antibody alone or in combination with Lenalidomide (luciferase read-out); assay type: cell-based; details: MM1.S, Lenalidomide 1.5 µM alone, compared to the cells without Lenalidomide
Method: (§1) The anti-Ras bispecific antibody constructs SFV02_PCC06 (SEQ ID No 75 + 76) was tested in cell culture against the human Multiple Myeloma cell lines MM.1S and the human acute monocytic leukemia cell line MV4-11. The MM. 1S and MV4-11 cells are luziferase positive and were seeded into 96-well cell culture plates (for each cell line 7500 cells in 50 µL per well in 150 µL medium) in the corresponding medium (Table 1) and incubated at 37°C and 5% CO2 for 24 hours. The next day, fresh human CD3+/CD8+ T-cells were added to each well, for a final tumour cell to T cells ratio of 1 to 5. Two dilution series were prepared of the SFV02_PCC06 antibody: (i) A final concentration of 25 nM, 12.5 nM, 6.25 nM and 3.125 nM (Figure 15), and (ii) a final concentration of 15 nM, 7.5 nM, 3.75 nM, 1.87 nM, 0.93 nM, 0.46 nM, 0.23 nM and 0.11 nM (Figure 16). From the antibody dilution series, 20 µL was added to each respective well.
(§2) To test if chemical compounds can improve and/or increase the bi-specific anti Ras antibody directed killing of tumours cells, two compounds were tested. […] Afterwards, the bioluminescence of the firefly-luciferase was measured, using a Tecan Spark plate reader (with an absorbance scan from 350 nm to 700 nm with an integration time interval of 1000 ms).

[2] = system: aberrant expressed Ras on the cell surface; assay: cell-based ELISA of aberrant Ras protein on the cell surface under normal and stress conditions; parameters: species or system human; details: versus complete medium; for aberrant Ras expression on the cell surface: Lenalidomide 1.5µM overnight
Method: For the cell-based ELISA, different adherent cell lines (AsPC-1, Panc-1, SK-BR-3 and BT-474) were used. First, the cell culture medium was removed, and the cells were washed one time with PBS. After washing, 2 ml of […] Trypsin-EDTA (Gibco, #25300054) was added to trypsinise the cells for 3 min at 37°C. Then, 13 ml of complete medium (Table 1) was added to stop the trypsinisation process. Cell numbers were count via Trypan Blue staining and 30.000 viable cells in 50 µl were seeded out per well, in a 96-well tissue culture plate at 37°C and 5% CO2. After overnight adhesion of the cells, three different mechanisms to induce cellular stress on the tumour cells were tested: (i) addition of 0,5% DMSO in the cell culture medium, (ii) adding 1,5 µM Lenalidomide in the cell culture medium, (iii) or replacement of the complete medium by cell culture medium without supplemented FBS for serum-starvation. As normal control, for cells not under additional cellular stress, cells were left in complete medium. The stress-induction was performed overnight at 37°C and 5% CO2. The next day, to reduce unspecific binding of detection antibody to the plastic of the cell culture plate, each well was filled up to the top with 50% FBS in PBS, carefully pipette on top of the incubation medium, and incubated for 30 minutes at 37°C. Then, the all medium was discarded from the wells and 50 µl of 1:100-diluted FcR Blocking Reagent (MACS Miltenyi #130-059-901) was added to each well to avoid unspecific binding by blocking of the Fc-Receptors on the tumour cells. […]
The HRP-reaction was stopped after sufficient colour development by adding 50 µl of stop solution (1 N Sulfuric Acid) to each well. Finally, the absorbance was measured in each well at a wavelength of 450 nm and a reference wavelength of 630 nm with a Tecan SPARK® multimode-mikroplate-reader. The absorbance values from the unspecific HRP-labelled control samples (samples without primary antibody but with corresponding HRP labelled secondary antibody), were used for the zero baseline model and set at 0 (Figure 19 and 20).

[3] = system: human acute monocytic leukemia cell line MV4-11; assay: in vitro killing assay of anti-Ras bispecific antibody alone or in combination with DMSO (luciferase read-out); assay type: cell-based; details: alone, read-out: viability drop of MV4-11 cells
Method: as §1, §2

SMILES | percent drop in cell viability at 1.5 µM [1] [%] | aberrant Ras expression on the cell surface ([2]; AsPc-1 cells) | aberrant Ras expression on the cell surface ([2]; SK-BR-3 cells) | viability drop at 70.4 µM [3] [%] | aberrant Ras protein on the cell surface ([2]; the four solid tumour cells (AsPC-1, Panc-1, MS-18, SK-BR-3), DMSO 0.5% (v/v))
Nc1cccc2c1CN(C1CCC(=O)NC1=O)C2=O (centres unmarked) [Lenalidomide] | 25 | up-regulating | up-regulating |  | 
C[S+](C)[O-] [DMSO, Dimethyl Sulfoxide] |  |  |  | 30 | down-regulating
